Earlier results in patent US20040043073A1, “Pharmaceutical compositions for drugs having pH-dependent solubility” (priority 2002, published 2004).
Where two headings read alike, the source gives them in different places.

solubility (in the stomach (pH 1.2)): very soluble
solubility (lower small intestine (pH 6 to 8)): solubility decreases
solubility (upper region of the small intestine (pH 5.0)): fairly soluble
Structure (SMILES): CC[C@H]1OC(=O)[C@H](C)[C@@H](O[C@H]2C[C@@](C)(OC)[C@@H](O)[C@H](C)O2)[C@H](C)[C@@H](O[C@@H]2O[C@H](C)C[C@H](N(C)C)[C@H]2O)[C@](C)(OC)C[C@@H](C)C(=O)[C@H](C)[C@@H](O)[C@]1(C)O [clarithromycin, 6-O-methylerythromycin A]
